Measurements from article PMC12260505, “First-in-Human Phase I/IIa Study of the First-in-Class CDK2/4/6 Inhibitor PF-06873600 Alone or with Endocrine Therapy in Patients with Breast Cancer” (Clinical Cancer Research, 2025).
Several values for one entry are separate records, joined by “and”; a condition that tells them apart may be missing. Equal entries are not always repeated.

Experiment: Plasma PF-06873600 pharmacokinetics (LC/MS-MS, noncompartmental analysis)
Assay type: in vivo, human
Experimental: Plasma samples were analyzed for PF-06873600 concentrations at Q2 Solutions using a validated analytic assay in compliance with Pfizer standard operating procedures. PF-06873600 samples were assayed by a validated LC/MS-MS using positive ionization mode. PK parameters were calculated using noncompartmental analysis of plasma concentration–time data.

[1] = Cycle 1 Day 15, Part 1A 1 mg BID IR
[2] = Cycle 1 Day 15, Part 1A 2 mg BID IR
[3] = Cycle 1 Day 15, Part 1A 5 mg BID IR
[4] = Cycle 1 Day 15, Part 1A 10 mg BID IR
[5] = Cycle 1 Day 15, Part 1A 25 mg BID Biomarker IR
[6] = Cycle 1 Day 15, Part 1A 25 mg BID IR
[7] = Cycle 1 Day 15, Part 1A 35 mg BID IR
[8] = Cycle 1 Day 15, Part 1A 35 mg BID Intm 5/2 IR
[9] = Cycle 1 Day 15, Part 1A 50 mg BID IR
[10] = Cycle 1 Day 15, Part 1B 25 mg BID +Ful IR
[11] = Cycle 1 Day 15, Part 1B 25 mg BID +Let IR
[12] = Cycle 1 Day 15, Part 1C MR 30 mg BID long duration
[13] = Day -4, Part 1C single dose 20 mg MR Long Duration
[14] = Day -7, Part 1C single dose 20 mg MR Short Duration

## C[C@@]1(O)CCC[C@H]1n1c(=O)c(C(F)F)cc2cnc(NC3CCN(S(C)(=O)=O)CC3)nc21 [PF-06873600]
[1]
  Cmax, individual value(s): 10.9 ng/mL
  Cmin, individual value(s): 0.000 ng/mL
  Rac (observed accumulation ratio based on AUC), individual value(s): 1.21
  Tmax, median (range): 1.00 h
[2]
  AUCtau, individual value(s): 51.4 ng·h/mL and 86.9 ng·h/mL
  CL/F, individual value(s): 23.0 L/h and 38.9 L/h
  Cmax, individual value(s): 18.2 ng/mL and 45.4 ng/mL
  Rac (observed accumulation ratio based on AUC), individual value(s): 1.16
  Tmax, median (range): 1.25 h
  Vz/F, individual value(s): 53.3 L and 98.4 L
  t1/2, individual value(s): 5800 s and 6300 s
Cycle 1 Day 15, Part 1A 2 mg BID IR (both patients 0.000)
  Cmin, individual value(s): 0.000 ng/mL
[3]
  AUCtau, individual value(s): 150 ng·h/mL and 483 ng·h/mL
  CL/F, individual value(s): 10.4 L/h and 33.2 L/h
  Cmax, individual value(s): 46.3 ng/mL and 126 ng/mL
  Cmin, individual value(s): 1.19 ng/mL and 23.6 ng/mL
  Rac (observed accumulation ratio based on AUC), individual value(s): 1.53
  Tmax, median (range): 1.20 h
  Vz/F, individual value(s): 124 L
  t1/2, individual value(s): 9320 s
[4]
  AUCtau, geometric mean (%CV): 448.8 (25) ng.h/mL
  CL/F, geometric mean (%CV): 22.28 (24) L/h
  Cmax, geometric mean (%CV): 124.3 (29) ng/mL
  Cmin, geometric mean (%CV): 5.499 (5) ng/mL
  Rac (observed accumulation ratio based on AUC), geometric mean (%CV): 0.7263
  Tmax, median (range): 2.00 h
  Vz/F, geometric mean (%CV): 72.17 (19) L
  t1/2, arithmetic mean±standard deviation: 2.250 h
[5]
  AUCtau, geometric mean (%CV): 1010 (40) ng.h/mL
  CL/F, geometric mean (%CV): 24.76 (40) L/h
  Cmax, geometric mean (%CV): 246.4 (40) ng/mL
  Cmin, geometric mean (%CV): 21.28 (130) ng/mL
  Rac (observed accumulation ratio based on AUC), geometric mean (%CV): 1.254 (49)
  Tmax, median (range): 1.92 h
  Vz/F, geometric mean (%CV): 99.62 (35) L
  t1/2, arithmetic mean±standard deviation: 2.797 h
[6]
  AUCtau, geometric mean (%CV): 1695 (34) ng.h/mL
  CL/F, geometric mean (%CV): 14.78 (34) L/h
  Cmax, geometric mean (%CV): 382.4 (33) ng/mL
  Cmin, geometric mean (%CV): 37.63 ng/mL
  Rac (observed accumulation ratio based on AUC), geometric mean (%CV): 1.045 (17)
  Tmax, median (range): 1.95 h
  Vz/F, geometric mean (%CV): 57.62 (29) L
  t1/2, arithmetic mean±standard deviation: 2.733 h
[7]
  AUCtau, individual value(s): 2060 ng·h/mL and 2360 ng·h/mL
  CL/F, individual value(s): 14.8 L/h and 17.0 L/h
  Cmax, individual value(s): 362 ng/mL and 399 ng/mL
  Cmin, individual value(s): 52.1 ng/mL and 80.4 ng/mL
  Rac (observed accumulation ratio based on AUC), individual value(s): 0.822
  Tmax, median (range): 2.01 h
  Vz/F, individual value(s): 70.8 L
  t1/2, individual value(s): 11900 s
[8]
  AUCtau, geometric mean (%CV): 1372 (39) ng.h/mL
  CL/F, geometric mean (%CV): 25.54 (39) L/h
  Cmax, geometric mean (%CV): 290.2 (29) ng/mL
  Cmin, geometric mean (%CV): 25.56 (8) ng/mL
  Rac (observed accumulation ratio based on AUC), geometric mean (%CV): 0.8893
  Tmax, median (range): 2.23 h
  Vz/F, geometric mean (%CV): 99.03 (48) L
  t1/2, arithmetic mean±standard deviation: 2.752 h
[9]
  AUCtau, geometric mean (%CV): 1607 (34) ng.h/mL
  CL/F, geometric mean (%CV): 21.99 (44) L/h
  Cmax, geometric mean (%CV): 335.2 (22) ng/mL
  Cmin, geometric mean (%CV): 25.63 ng/mL
  Rac (observed accumulation ratio based on AUC), geometric mean (%CV): 1.260 (25)
  Tmax, median (range): 1.98 h
  Vz/F, geometric mean (%CV): 75.41 (17) L
  t1/2, arithmetic mean±standard deviation: 2.535 h
[10]
  AUCtau, geometric mean (%CV): 1229 (41) ng.h/mL
  CL/F, geometric mean (%CV): 20.35 (41) L/h
  Cmax, geometric mean (%CV): 305.0 (35) ng/mL
  Cmin, geometric mean (%CV): 21.25 ng/mL
  Rac (observed accumulation ratio based on AUC), geometric mean (%CV): 1.191 (29)
  Tmax, median (range): 1.88 h
  Vz/F, geometric mean (%CV): 75.71 (32) L
  t1/2, arithmetic mean±standard deviation: 2.508 h
[11]
  AUCtau, geometric mean (%CV): 1273 (50) ng.h/mL
  CL/F, geometric mean (%CV): 19.63 (49) L/h
  Cmax, geometric mean (%CV): 276.5 (31) ng/mL
  Cmin, geometric mean (%CV): 13.33 ng/mL
  Rac (observed accumulation ratio based on AUC), geometric mean (%CV): 1.268 (35)
  Tmax, median (range): 2.08 h
  Vz/F, geometric mean (%CV): 80.33 (27) L
  t1/2, arithmetic mean±standard deviation: 2.468 h
[12]
  AUCtau, geometric mean (%CV): 636.8 (59) ng.h/mL
  CL/F, geometric mean (%CV): 47.08 (59) L/h
  Cmax, geometric mean (%CV): 82.1 ng/mL
  Cmin, geometric mean (%CV): 45.78 (49) ng/mL
  Tmax, median (range): 2.99 (0.000–4.00) h
[13]
  AUCinf, individual value(s): 584 ng·h/mL and 713 ng·h/mL
  AUClast, geometric mean (%CV): 469.7 (63) ng.h/mL
  CL/F, individual value(s): 28.0 L/h and 34.3 L/h
  Cmax, geometric mean (%CV): 39 ng/mL
  Tmax, median (range): 12.0 (6.00–12.0) h
  Vz/F, individual value(s): 163 L and 496 L
  t1/2, individual value(s): 14500 s and 36000 s
[14]
  AUCinf, geometric mean (%CV): 687.8 (73) ng.h/mL
  AUClast, geometric mean (%CV): 639.7 (67) ng.h/mL
  CL/F, geometric mean (%CV): 29.05 (73) L/h
  Cmax, geometric mean (%CV): 73.7 ng/mL
  Tmax, median (range): 5.33 (2.00–6.00) h
  Vz/F, geometric mean (%CV): 218.1 (50) L
  t1/2, arithmetic mean±standard deviation: 6.778 ± 5.7890 h
RDE 25 mg twice daily, Ceff from HCC1428, HCC1806, and Ovar3 models
  Part of dosing interval with mean steady-state PK concentrations above predicted effective concentrations (Ceff): at least 70 % of the dosing interval
RDE 25 mg twice daily, Ceff from the MCF7 model
  Criterion of concentrations above Ceff for at least 70% of the dosing interval: not achieved
In vivo
  Plasma exposures, monotherapy vs combination therapy with fulvestrant or letrozole: largely comparable
